Test results taken from US20210371461A1, “Novel chemiluminescent substrates for Factor Xa” (Enzyre B.V., priority 2018, published 2021).
Where a SMILES comes first, the peptide text is derived from it. The star is where a group is joined. X1 = O=C(O)[C@H]1CSC(c2nc3ccc(N*)cc3s2)=N1; Decanoyl(3,6,9-trioxa) = COCCOCCOCC(=O)*

What was measured:
Format in all cases: biochemical
[1] = target: T1, FXlla (Homo sapiens, UniProt P00748); assay: Cross reactivity assay, FXIIa; details: 145 nM FXlla
T1 construct: initiated by addition of active coagulation factors such as FXlla, FXla, or FIXa
T1 sequence (P00748 373-615 limits assumed): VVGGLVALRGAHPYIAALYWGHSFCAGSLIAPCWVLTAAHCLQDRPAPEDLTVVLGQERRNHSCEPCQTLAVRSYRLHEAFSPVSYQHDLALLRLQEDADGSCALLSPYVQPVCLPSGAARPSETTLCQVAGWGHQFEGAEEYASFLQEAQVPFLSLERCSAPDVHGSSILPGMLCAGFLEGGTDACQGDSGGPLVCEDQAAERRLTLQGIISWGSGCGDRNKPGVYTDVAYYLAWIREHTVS
Description: (§1) To determine cross-reactivity an assay was performed using a range of coagulation enzymes at representative concentrations in human plasma. […] For tissue-type plasminogen activator (tPA) this is the conventional concentration for facilitation of fibrinolysis. A concentration of 80 nm FXa yielded a signal of 1.000.000 RLU.

[2] = target: T2, FXa (Homo sapiens, UniProt P00742); assay: Michaelis-Menten kinetics of substrate with FXa (luciferase luminescence); details: FXa concentration 1.6 nM
T2 construct: purchased Coachrom
Description: Michaelis-Menten kinetics were determined for the enzyme FXa and its substrate MePEG2-IEGR (the TFA salt was used in these examples). The following composition was prepared in a microvial on ice:
160 μL Tris buffered saline (TBS) 50 mM Tris-HCI, 150 mM NaCI (pH 7.4)
4 μL ATP (final concentration 333 μM)
4 μL MgC2 (final concentration 8.3 mM)
12 μL Luciferase (final concentration 0.9 mg/ml)
Substrate compositions 2a-g:
Microvials were prepared with 30 μL substrate concentrations leading to final concentrations of 2000, 1333, 1000, 666, 333, 167 and 66 μM.
FXa (Coachrom, 16 nM) composition was prepared in a microvial on ice
Subsequently, the following compositions were added together in a white 384-well plate:
Subsequently the well plate was placed in a 37 ° C. thermostated Flexstation 3 (Molecular Devices). Luminescence emission wavelength was with an integration time of 1500 ms, measured for 1s every 30 s during 30 min.

[3] = target: T3, thrombin (Homo sapiens, UniProt P00734); assay: Cross reactivity assay, thrombin; details: 52 nM thrombin
T3 construct: FXa acts by cleaving prothrombin, yielding active thrombin
Description: as §1

[4] = target: tissue-type plasminogen activator (tPA) (Homo sapiens, UniProt P00750); assay: Cross reactivity assay, tPA; details: 193 IU/mL tPA
Description: as §1

[5] = target: T2, FXa; assay: Cross reactivity assay, FXa; details: compared with thrombin, plasmin, tPA, FXlla
Description: as §1

[6] = target: plasmin (Homo sapiens, UniProt P00747); assay: Cross reactivity assay, plasmin; details: 8 nM plasmin
Description: as §1

T2 sequence (P00742 235-488 limits assumed): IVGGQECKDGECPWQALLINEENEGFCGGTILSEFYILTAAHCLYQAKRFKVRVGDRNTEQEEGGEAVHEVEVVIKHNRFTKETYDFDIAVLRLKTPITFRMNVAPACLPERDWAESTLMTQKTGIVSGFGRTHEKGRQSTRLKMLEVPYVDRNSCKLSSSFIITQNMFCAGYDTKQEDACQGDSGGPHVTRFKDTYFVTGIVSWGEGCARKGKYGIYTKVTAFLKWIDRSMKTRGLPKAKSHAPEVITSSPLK
T2 sequence (P00742 41-179 partner limits assumed): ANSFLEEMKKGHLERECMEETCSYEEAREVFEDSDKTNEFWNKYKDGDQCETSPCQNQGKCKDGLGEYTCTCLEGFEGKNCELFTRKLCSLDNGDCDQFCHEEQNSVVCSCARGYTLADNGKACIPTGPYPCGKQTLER
tissue-type plasminogen activator (tPA), sequence (P00750 36-562): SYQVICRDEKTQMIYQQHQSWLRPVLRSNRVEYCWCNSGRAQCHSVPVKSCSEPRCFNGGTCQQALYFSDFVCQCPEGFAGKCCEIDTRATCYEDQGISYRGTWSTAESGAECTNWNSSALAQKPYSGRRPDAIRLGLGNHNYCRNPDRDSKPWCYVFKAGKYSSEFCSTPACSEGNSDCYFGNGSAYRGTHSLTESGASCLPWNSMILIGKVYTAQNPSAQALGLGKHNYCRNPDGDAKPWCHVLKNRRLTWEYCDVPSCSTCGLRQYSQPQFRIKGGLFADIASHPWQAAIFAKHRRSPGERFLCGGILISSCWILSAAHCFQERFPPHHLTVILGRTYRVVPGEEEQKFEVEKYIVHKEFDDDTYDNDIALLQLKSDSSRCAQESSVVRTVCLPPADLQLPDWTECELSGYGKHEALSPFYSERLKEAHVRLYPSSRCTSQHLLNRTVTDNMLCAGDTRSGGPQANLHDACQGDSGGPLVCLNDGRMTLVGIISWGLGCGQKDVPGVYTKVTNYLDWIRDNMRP
plasmin, sequence (P00747 581-810 limits assumed): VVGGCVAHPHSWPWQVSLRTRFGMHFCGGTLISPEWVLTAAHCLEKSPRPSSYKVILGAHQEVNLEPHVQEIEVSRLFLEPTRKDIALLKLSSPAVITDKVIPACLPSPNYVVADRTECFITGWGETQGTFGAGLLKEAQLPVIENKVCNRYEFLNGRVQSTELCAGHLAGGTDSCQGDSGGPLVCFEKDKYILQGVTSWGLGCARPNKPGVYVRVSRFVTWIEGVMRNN
plasmin, sequence (P00747 97-580 partner limits assumed): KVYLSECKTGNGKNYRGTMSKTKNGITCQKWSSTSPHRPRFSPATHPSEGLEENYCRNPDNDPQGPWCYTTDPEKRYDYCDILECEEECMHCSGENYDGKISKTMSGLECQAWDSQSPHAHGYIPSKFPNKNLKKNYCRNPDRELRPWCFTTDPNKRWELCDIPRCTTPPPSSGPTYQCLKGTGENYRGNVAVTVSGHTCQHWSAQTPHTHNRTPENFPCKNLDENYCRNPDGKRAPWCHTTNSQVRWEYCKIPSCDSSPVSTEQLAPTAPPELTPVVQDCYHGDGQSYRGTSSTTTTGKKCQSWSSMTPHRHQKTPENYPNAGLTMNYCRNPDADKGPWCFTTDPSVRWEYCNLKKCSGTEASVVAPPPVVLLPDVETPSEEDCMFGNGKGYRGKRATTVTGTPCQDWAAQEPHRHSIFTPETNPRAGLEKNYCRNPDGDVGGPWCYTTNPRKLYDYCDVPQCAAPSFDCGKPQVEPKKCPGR

CC[C@H](C)[C@H](NC(=O)COCCOCCOC)C(=O)N[C@@H](CCC(=O)O)C(=O)NCC(=O)N[C@@H](CCCNC(=N)N)C(=O)Nc1ccc2nc(C3=N[C@@H](C(=O)O)CS3)sc2c1 [MePEG2-IEGR] ({Decanoyl(3,6,9-trioxa)}-IEGR-X1) was tested, and the luminescent signal [1] was about 500 RLU, the “Kcat=Vmax/[FXa]” value [2] was 1.05e+14 s⁻¹ and the Km ([2]; 37 °C) was 619 µM. The Vmax ([2]; 37 °C, luciferase/ATP/Mg readout) was 468000 RLU, the luminescent signal [3] was about 30.000 RLU and the luminescent signal [4] was about 6.000 RLU. For the same compound, the “cross-reactivity with serine proteases other than FXa” value [5] was “minimal cross-reactivity” and the luminescent signal [6] was about 8.000 RLU.
